This passage reports IC50 results from patent US20210038607A1, “OXADIAZOLYLTHIOPHENE DERIVATIVES USEFUL AS HISTONE DEACETYLASE INHIBITORS” (Karus Therapeutics Limited, priority 2018, published 2021).

A value given as a limit tells only on which side of the number the result lay.

For one assay, the target named is T1, Human HDAC1 (Homo sapiens, UniProt Q13547).
T1 construct: full length with C-terminal His-tag and C-terminal FLAG-tag; His (C); FLAG (C); host or cells: baculovirus expression system
T1 sequence (Q13547 whole entry): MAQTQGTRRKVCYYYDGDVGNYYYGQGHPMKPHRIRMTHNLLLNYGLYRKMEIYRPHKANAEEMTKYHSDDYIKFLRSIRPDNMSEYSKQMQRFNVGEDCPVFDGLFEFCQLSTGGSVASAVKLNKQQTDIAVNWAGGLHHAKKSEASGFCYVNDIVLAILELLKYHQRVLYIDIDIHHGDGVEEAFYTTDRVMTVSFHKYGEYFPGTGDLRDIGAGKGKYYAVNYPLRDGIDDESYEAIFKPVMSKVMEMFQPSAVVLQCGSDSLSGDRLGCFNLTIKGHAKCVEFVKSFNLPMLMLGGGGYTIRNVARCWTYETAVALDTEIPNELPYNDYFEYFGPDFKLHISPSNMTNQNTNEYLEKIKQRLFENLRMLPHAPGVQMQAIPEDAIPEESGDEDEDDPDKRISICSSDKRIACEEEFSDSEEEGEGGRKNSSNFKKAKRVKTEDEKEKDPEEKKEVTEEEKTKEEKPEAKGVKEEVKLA
Kind of assay: HDAC1 biochemical assay, AMC-labeled peptide substrate. To be noted: read-out: HDAC Isoform IC50 (nM) 1. An outline of the steps:
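Two-step fluorogenic read: HDAC1 deacetylates 50 μM acetyl-lysine AMC peptide RHKK(Ac)AMC for 1 h at 30° C (pH 8.0, 1% DMSO, with compound), then developer digests the product for fluorescence at Ex/Em 360/460. Enzyme is full-length human, His/FLAG-tagged, insect-cell expressed, at 0.3 ng/ul.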

The target of another assay is T2, Human HDAC4 (Homo sapiens, UniProt P56524).
T2 construct: amino acids 627-1085 with N-terminal GST tag; GST (N); host or cells: baculovirus expression system
T2 sequence (P56524 627-1084 limits assumed): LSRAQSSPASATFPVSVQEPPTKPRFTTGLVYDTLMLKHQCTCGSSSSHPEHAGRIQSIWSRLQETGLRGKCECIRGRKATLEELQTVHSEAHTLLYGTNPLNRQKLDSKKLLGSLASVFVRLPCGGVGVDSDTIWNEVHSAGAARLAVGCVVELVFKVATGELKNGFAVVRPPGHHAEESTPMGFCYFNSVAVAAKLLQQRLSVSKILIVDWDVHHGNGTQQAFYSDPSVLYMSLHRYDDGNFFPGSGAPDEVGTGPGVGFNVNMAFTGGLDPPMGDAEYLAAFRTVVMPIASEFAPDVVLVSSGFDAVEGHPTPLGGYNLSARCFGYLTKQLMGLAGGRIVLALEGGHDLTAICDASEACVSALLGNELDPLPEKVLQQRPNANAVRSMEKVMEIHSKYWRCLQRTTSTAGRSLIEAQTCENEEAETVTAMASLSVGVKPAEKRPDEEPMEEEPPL
Description: HDAC4 biochemical assay, class IIa-specific substrate. To be noted: read-out: HDAC Isoform IC50 (nM) 4. A digest of the protocol: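 Two-step fluorogenic read-out: deacetylated BOC-Lys(trifluoroacetyl)-AMC (50 μM) was digested by developer and measured at Ex/Em 360/460. Deacetylation by 0.004 ng/ul HDAC4 (aa 627-1085, N-terminal GST) ran 30 min at room temperature, pH 8.0 Tris buffer, 1 mg/mL BSA, 1% DMSO.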

The next assay addresses T3, Human HDAC5 (Homo sapiens, UniProt Q9UQL6).
T3 construct: full length with C-terminal His tag, MW=51.1 kDa; His (C); host or cells: baculovirus expression system
Kind of assay: HDAC5 biochemical assay, class IIa-specific substrate. The settings on record: read-out: HDAC Isoform IC50 (nM) 5. A digest of the protocol:
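Two-step fluorogenic read-out: deacetylated trifluoroacetyl-lysine AMC substrate (50 μM) digested by developer, measured at Ex/Em 360/460. Deacetylation step: 0.05 ng/ul His-tagged full-length baculoviral enzyme with compound, 30 min, room temperature, pH 8.0 Tris with 1 mg/mL BSA and 1% DMSO.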

A further assay concerns the target T4, Recombinant human HDAC6 (Homo sapiens, UniProt Q9UBN7).
T4 construct: full length, MW=159 kDa; GST (N); host or cells: Sf9 insect cells (baculovirus)
T4 sequence (Q9UBN7 1-1215): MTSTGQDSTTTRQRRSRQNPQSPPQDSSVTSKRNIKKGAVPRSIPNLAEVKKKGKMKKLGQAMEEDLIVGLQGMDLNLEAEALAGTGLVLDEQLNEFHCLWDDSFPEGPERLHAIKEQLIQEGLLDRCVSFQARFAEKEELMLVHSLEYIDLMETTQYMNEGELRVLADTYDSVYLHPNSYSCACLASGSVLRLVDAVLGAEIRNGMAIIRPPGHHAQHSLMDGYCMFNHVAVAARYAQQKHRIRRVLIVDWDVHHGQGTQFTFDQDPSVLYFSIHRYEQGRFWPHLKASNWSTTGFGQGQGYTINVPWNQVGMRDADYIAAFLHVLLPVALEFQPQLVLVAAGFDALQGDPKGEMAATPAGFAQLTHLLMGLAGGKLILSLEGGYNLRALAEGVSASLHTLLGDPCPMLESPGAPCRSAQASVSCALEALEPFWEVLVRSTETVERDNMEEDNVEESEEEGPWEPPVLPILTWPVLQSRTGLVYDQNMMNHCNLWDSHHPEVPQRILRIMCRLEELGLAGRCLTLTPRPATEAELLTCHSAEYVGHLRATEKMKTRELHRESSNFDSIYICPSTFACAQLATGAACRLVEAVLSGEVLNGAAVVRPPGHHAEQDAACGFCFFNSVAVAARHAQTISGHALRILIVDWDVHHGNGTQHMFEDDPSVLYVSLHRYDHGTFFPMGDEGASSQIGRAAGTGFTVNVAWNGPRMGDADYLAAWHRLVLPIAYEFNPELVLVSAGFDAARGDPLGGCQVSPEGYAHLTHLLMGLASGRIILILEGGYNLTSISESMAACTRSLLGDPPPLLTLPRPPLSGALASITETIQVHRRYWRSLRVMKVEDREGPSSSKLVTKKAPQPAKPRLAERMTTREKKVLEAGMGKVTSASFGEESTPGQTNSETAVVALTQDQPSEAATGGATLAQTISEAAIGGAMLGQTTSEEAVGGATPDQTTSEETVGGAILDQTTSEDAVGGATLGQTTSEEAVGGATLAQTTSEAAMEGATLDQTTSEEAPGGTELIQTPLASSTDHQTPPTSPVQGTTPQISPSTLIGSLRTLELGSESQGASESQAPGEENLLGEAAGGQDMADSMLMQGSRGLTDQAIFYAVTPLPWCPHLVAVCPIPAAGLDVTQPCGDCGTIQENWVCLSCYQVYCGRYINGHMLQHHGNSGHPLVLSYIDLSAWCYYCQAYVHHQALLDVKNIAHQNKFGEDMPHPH
Description: HDAC6 biochemical assay, AMC-labeled peptide substrate. The settings on record: HDAC6; read-out: HDAC Isoform IC50 (nM) 6. An outline of the steps:
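Two-step fluorogenic read-out: enzyme deacetylates 50 μM RHKK(Ac)AMC for 1 h at 30° C in pH 8.0 Tris buffer with BSA and 1% DMSO, then developer cleavage gives signal at Ex 360/Em 460. Enzyme: 0.3 ng/ul recombinant full-length human HDAC6, GST-tagged, Sf9-expressed.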

For the next assay, the target named is T5, Human HDAC7 (Homo sapiens, UniProt Q8WUI4).
T5 construct: (a.a. 518-end) with N-terminal GST tag; GST (N); host or cells: baculovirus expression system
T5 sequence (Q8WUI4 518-952 limits assumed): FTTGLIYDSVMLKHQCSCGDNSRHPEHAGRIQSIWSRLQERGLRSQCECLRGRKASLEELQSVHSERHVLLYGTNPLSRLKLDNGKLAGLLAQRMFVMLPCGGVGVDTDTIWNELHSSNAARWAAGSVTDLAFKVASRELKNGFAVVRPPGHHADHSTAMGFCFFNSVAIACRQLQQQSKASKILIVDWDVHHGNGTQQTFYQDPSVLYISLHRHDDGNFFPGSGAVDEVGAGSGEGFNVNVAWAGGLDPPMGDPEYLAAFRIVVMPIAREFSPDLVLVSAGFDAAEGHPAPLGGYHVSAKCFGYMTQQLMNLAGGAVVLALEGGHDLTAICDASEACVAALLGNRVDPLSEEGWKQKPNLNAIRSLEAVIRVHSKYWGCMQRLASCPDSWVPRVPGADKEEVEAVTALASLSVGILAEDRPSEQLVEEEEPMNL
Kind of assay: HDAC7 biochemical assay, class IIa-specific substrate. The settings on record: read-out: HDAC Isoform IC50 (nM) 7. An outline of the steps:
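Two-step fluorogenic readout: class IIa-selective trifluoroacetyl-lysine AMC substrate (50 μM) deacetylated by N-terminal GST-HDAC7 fragment (0.001 ng/ul), then digested by developer, Ex/Em 360/460. Reaction: 30 min, room temperature, Tris-HCl pH 8.0, NaCl/KCl/MgCl2, 1 mg/mL BSA, 1% DMSO.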

A further assay addresses T6, Human HDAC9 (Homo sapiens, UniProt Q9UKV0).
T6 construct: amino acids 604-1066 with C-terminal His tag; His (C); host or cells: baculovirus expression system
Kind of assay: HDAC9 biochemical assay, class IIa-specific substrate. To be noted: read-out: HDAC Isoform IC50 (nM) 9. An outline of the steps: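 HDAC9 residues 604-1066 (C-terminal His tag, baculovirus-expressed) at 0.06 ng/ul with 50 μM class IIa substrate Boc-Lys(trifluoroacetyl)-AMC in Tris-HCl pH 8.0 buffer with BSA and 1% DMSO. 30 min at room temperature, then developer added; fluorescence read at 360/460 nm Ex/Em.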

T6 sequence (Q9UKV0 604-1066 isoform Q9UKV0-5): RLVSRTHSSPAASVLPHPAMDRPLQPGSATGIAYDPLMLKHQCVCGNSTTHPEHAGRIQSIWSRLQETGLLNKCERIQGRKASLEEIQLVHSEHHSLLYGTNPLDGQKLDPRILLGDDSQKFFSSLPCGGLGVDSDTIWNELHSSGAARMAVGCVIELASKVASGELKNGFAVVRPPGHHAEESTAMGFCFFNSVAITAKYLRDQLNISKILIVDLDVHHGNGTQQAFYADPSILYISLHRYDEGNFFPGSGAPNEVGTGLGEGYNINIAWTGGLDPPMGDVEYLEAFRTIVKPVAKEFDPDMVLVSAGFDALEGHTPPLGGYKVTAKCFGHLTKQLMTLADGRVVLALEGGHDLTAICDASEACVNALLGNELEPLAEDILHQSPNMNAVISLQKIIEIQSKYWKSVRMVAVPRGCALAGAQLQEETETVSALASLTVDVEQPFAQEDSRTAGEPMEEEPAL
T3 sequence (Q9UQL6 656-1122 limits assumed): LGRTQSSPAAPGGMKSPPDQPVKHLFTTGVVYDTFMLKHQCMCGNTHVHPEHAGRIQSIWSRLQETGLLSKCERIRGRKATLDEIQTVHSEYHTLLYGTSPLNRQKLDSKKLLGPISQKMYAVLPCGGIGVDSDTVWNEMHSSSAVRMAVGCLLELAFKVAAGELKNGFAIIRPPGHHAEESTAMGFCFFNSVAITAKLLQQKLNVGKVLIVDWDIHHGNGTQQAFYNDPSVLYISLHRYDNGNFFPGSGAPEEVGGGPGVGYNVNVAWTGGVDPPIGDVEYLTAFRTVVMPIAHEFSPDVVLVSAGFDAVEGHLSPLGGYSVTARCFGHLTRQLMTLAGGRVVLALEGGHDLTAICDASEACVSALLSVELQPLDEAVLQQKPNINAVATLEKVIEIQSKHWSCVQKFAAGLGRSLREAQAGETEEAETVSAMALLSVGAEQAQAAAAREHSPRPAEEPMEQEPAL

Broadly, the IC50 is the concentration at which inhibition is half-maximal. `COc1ncc(N(Cc2ccc(-c3noc(C(F)(F)F)n3)s2)c2cnccn2)nc1OC` [Example BW, 5,6-Dimethoxy-N-(pyrazin-2-yl)-N-({5-[5-(trifluoromethyl)-1,2,4-oxadiazol-3-yl]thiophen-2-yl}methyl)pyrazin-2-amine]: the half-maximal inhibitory concentration (IC50) at Human HDAC1 is over 10000 nM; on Human HDAC4, at most 10000 nM; on Human HDAC5 it was at most 10000 nM; on Recombinant human HDAC6 it was at most 10000 nM; at Human HDAC7 it was at most 10000 nM; on Human HDAC9, at most 10000 nM.
`Cc1cncc(N(Cc2ccc(-c3noc(C(F)(F)F)n3)s2)c2cncc(C)n2)n1` [Example BX, 6-Methyl-N-(6-methylpyrazin-2-yl)-N-({5-[5-(trifluoromethyl)-1,2,4-oxadiazol-3-yl]thiophen-2-yl}methyl)pyrazin-2-amine]: the IC50 on Human HDAC1 was over 10000 nM; at Human HDAC4, over 10000 nM; on Human HDAC5, at most 10000 nM; on Recombinant human HDAC6 it was at most 10000 nM; at Human HDAC7, at most 10000 nM; on Human HDAC9, at most 10000 nM.
Take `COc1cncc(N(Cc2ccc(-c3noc(C(F)(F)F)n3)s2)c2cncc(OC)n2)n1` [Example BY, 6-Methoxy-N-(6-methoxypyrazin-2-yl)-N-({5-[5-(trifluoromethyl)-1,2,4-oxadiazol-3-yl]thiophen-2-yl}methyl)pyrazin-2-amine]: the IC50 on Human HDAC1 is over 10000 nM; at Human HDAC4 it was at most 10000 nM; at Human HDAC5, at most 10000 nM; on Recombinant human HDAC6, at most 10000 nM; on Human HDAC7, at most 10000 nM; at Human HDAC9, at most 10000 nM.
Take `Cc1nccc(N(Cc2ccc(-c3noc(C(F)(F)F)n3)s2)c2cnccn2)n1` [Example CA, 2-Methyl-N-(pyrazin-2-yl)-N-({5-[5-(trifluoromethyl)-1,2,4-oxadiazol-3-yl]thiophen-2-yl}methyl)pyrimidin-4-amine]: the concentration for half-maximal inhibition (IC50) on Human HDAC1 was over 10000 nM; at Human HDAC4, at most 1000 nM; at Human HDAC5 it was at most 1000 nM; on Recombinant human HDAC6 it was at most 10000 nM; at Human HDAC7, at most 1000 nM; at Human HDAC9, at most 1000 nM.
With `COc1nccc(N(Cc2ccc(-c3noc(C(F)(F)F)n3)s2)c2cnccn2)n1` [Example CB, 2-Methoxy-N-(pyrazin-2-yl)-N-({5-[5-(trifluoromethyl)-1,2,4-oxadiazol-3-yl]thiophen-2-yl}methyl)pyrimidin-4-amine], the IC50 was over 10000 nM at Human HDAC1; at most 500 nM on Human HDAC4; at most 1000 nM at Human HDAC5; at most 1000 nM on Recombinant human HDAC6; at most 1000 nM at Human HDAC7; at most 10000 nM on Human HDAC9.
Consider `CN(C)c1nccc(N(Cc2ccc(-c3noc(C(F)(F)F)n3)s2)c2cnccn2)n1` [Example CC, N2,N2-Dimethyl-N4-(pyrazin-2-yl)-N4-({5-[5-(trifluoromethyl)-1,2,4-oxadiazol-3-yl]thiophen-2-yl}methyl)pyrimidine-2,4-diamine], for which the IC50 at Human HDAC1 was over 10000 nM; at Human HDAC4 it was at most 10000 nM; at Human HDAC5, at most 10000 nM; on Recombinant human HDAC6, at most 10000 nM; at Human HDAC7, at most 10000 nM; at Human HDAC9, at most 10000 nM.
As to `FC(F)(F)c1nccc(N(Cc2ccc(-c3noc(C(F)(F)F)n3)s2)c2cnccn2)n1` [Example CD, N-(Pyrazin-2-yl)-2-(trifluoromethyl)-N-({5-[5-(trifluoromethyl)-1,2,4-oxadiazol-3-yl]thiophen-2-yl}methyl)pyrimidin-4-amine], the IC50 at Human HDAC1 is over 10000 nM; on Human HDAC4 it was at most 1000 nM; on Human HDAC5 it was at most 1000 nM; at Recombinant human HDAC6, at most 10000 nM; on Human HDAC7, at most 1000 nM; on Human HDAC9, at most 1000 nM.
For the compound `FC(F)(F)c1nc(-c2ccc(CN(c3cnccn3)c3ccnc4ccnn34)s2)no1` [Example CF, N-{Pyrazolo[1,5-a]pyrimidin-7-yl}-N-({5-[5-(trifluoromethyl)-1,2,4-oxadiazol-3-yl]thiophen-2-yl}methyl)pyrazin-2-amine], the IC50 at Human HDAC1 was over 10000 nM; at Human HDAC4, at most 1000 nM; at Human HDAC5 it was at most 10000 nM; on Recombinant human HDAC6, at most 10000 nM; on Human HDAC7 it was at most 10000 nM; on Human HDAC9 it was at most 10000 nM.
`Cc1cc(N(Cc2ccc(-c3noc(C(F)(F)F)n3)s2)c2cnccn2)ncn1` [Example CG, 6-Methyl-N-(pyrazin-2-yl)-N-({5-[5-(trifluoromethyl)-1,2,4-oxadiazol-3-yl]thiophen-2-yl}methyl)pyrimidin-4-amine]: the IC50 at Human HDAC1 is over 10000 nM; on Human HDAC4, at most 10000 nM; on Human HDAC5, at most 1000 nM; on Recombinant human HDAC6, at most 1000 nM; on Human HDAC7, at most 10000 nM; at Human HDAC9 it was at most 10000 nM.
For the compound `COc1cc(N(Cc2ccc(-c3noc(C(F)(F)F)n3)s2)c2cnccn2)ncn1` [Example CH, 6-Methoxy-N-(pyrazin-2-yl)-N-({5-[5-(trifluoromethyl)-1,2,4-oxadiazol-3-yl]thiophen-2-yl}methyl)pyrimidin-4-amine], the IC50 on Human HDAC1 is over 10000 nM; at Human HDAC4, at most 10000 nM; at Human HDAC5, at most 10000 nM; at Recombinant human HDAC6, at most 10000 nM; on Human HDAC7, at most 10000 nM; on Human HDAC9, at most 10000 nM.
